ChEMBL document CHEMBL5034013, “Discovery of VNRX-7145 (VNRX-5236 Etzadroxil): An Orally Bioavailable β-Lactamase Inhibitor for Enterobacterales Expressing Ambler Class A, C, and D Enzymes” (J Med Chem, 2021)

How the values were obtained:
[1] = Metabolic stability in CD-1 mouse liver S9 fraction assessed as half life measured at 3 uM after 2 hrs in presence of NADPH by UPLC-MS/MS analysis; type: ADME, subcellular; details: s9, 2 h
[2] = Metabolic stability in Beagle dog liver S9 fraction assessed as half life at 3 uM measured after 2 hrs in presence of NADPH by UPLC-MS/MS analysis; type: ADME, subcellular, Canis lupus familiaris; details: s9, 2 h
[3] = Metabolic stability in CD-1 mouse plasma assessed as half life at 3 uM measured after 2 hrs by UPLC-MS/MS analysis; type: ADME, cell-free
[4] = Metabolic stability in Beagle dog intestinal S9 fraction assessed as half life at 3 uM measured after 2 hrs in presence of NADPH by UPLC-MS/MS analysis; type: ADME, subcellular, Canis lupus familiaris, Intestine; details: s9, 2 h
[5] = Metabolic stability in Beagle dog plasma assessed as half life at 3 uM measured after 2 hrs by UPLC-MS/MS analysis; type: ADME, cell-free, Canis lupus familiaris
[6] = Drug metabolism in mouse hepatocytes assessed as (R)-2-hydroxy-3-propionamido-3,4-dihydro-2H-benzo[e][1,2]oxaborinine-8-carboxylic acid formation at 2 to 20 uM incubated for 240 mins by UPLC-HR-MS/MS analysis; type: ADME, cell-based, Hepatocyte; details: 4 h, dose 2-20 µM
[7] = Metabolic stability in CD-1 mouse liver S9 fraction assessed as half life measured at 3 uM after 2 hrs in absence of NADPH by UPLC-MS/MS analysis; type: ADME, subcellular; details: s9, 2 h
[8] = Apparent permeability across apical to basolateral side in human Caco-2 cells at 5 uM measured after 2 hrs by LC-MS/MS method; type: ADME, cell-based; details: caco-2, 2 h
[9] = Drug metabolism in human hepatocytes assessed as (R)-2-hydroxy-3-propionamido-3,4-dihydro-2H-benzo[e][1,2]oxaborinine-8-carboxylic acid formation at 2 to 20 uM incubated for 240 mins by UPLC-HR-MS/MS analysis; type: ADME, cell-based, Hepatocyte; details: 4 h, dose 2-20 µM
[10] = Metabolic stability in human plasma assessed as half life at 3 uM measured after 2 hrs by UPLC-MS/MS analysis; type: ADME, cell-free
[11] = Metabolic stability in CD-1 mouse intestinal S9 fraction assessed as half life measured at 3 uM after 2 hrs in absence of NADPH by UPLC-MS/MS analysis; type: ADME, subcellular, Intestine; details: s9, 2 h
[12] = Metabolic stability in Sprague-Dawley rat liver S9 fraction assessed as half life at 3 uM measured after 2 hrs in presence of NADPH by UPLC-MS/MS; type: ADME, subcellular; details: s9, 2 h
[13] = Metabolic stability in human liver S9 fraction assessed as half life at 3 uM measured after 2 hrs in presence of NADPH by UPLC-MS/MS analysis; type: ADME, subcellular; details: s9, 2 h
[14] = Metabolic stability in human intestinal S9 fraction assessed as half life at 3 uM measured after 2 hrs in presence of NADPH by UPLC-MS/MS analysis; type: ADME, subcellular, Intestine; details: s9, 2 h
[15] = Metabolic stability in Sprague-Dawley rat intestinal S9 fraction assessed as half life at 3 uM measured after 2 hrs in presence of NADPH by UPLC-MS/MS analysis; type: ADME, subcellular, Intestine; details: s9, 2 h
[16] = Efflux ratio of apparent permeability from basolateral to apical side over apical to basolateral side in human Caco-2 cells at 5 uM measured after 2 hrs by LC-MS/MS method; type: ADME, cell-based; details: caco-2, 2 h
[17] = Metabolic stability in Beagle dog intestinal S9 fraction assessed as half life at 3 uM measured after 2 hrs in absence of NADPH by UPLC-MS/MS analysis; type: ADME, subcellular, Canis lupus familiaris, Intestine; details: s9, 2 h
[18] = Metabolic stability in Sprague-Dawley rat intestinal S9 fraction assessed as half life at 3 uM measured after 2 hrs in absence of NADPH by UPLC-MS/MS analysis; type: ADME, subcellular, Intestine; details: s9, 2 h
[19] = Metabolic stability in human intestinal S9 fraction assessed as half life at 3 uM measured after 2 hrs in absence of NADPH by UPLC-MS/MS analysis; type: ADME, subcellular, Intestine; details: s9, 2 h
[20] = Drug metabolism in rabbit hepatocytes assessed as (R)-2-hydroxy-3-propionamido-3,4-dihydro-2H-benzo[e][1,2]oxaborinine-8-carboxylic acid formation at 2 to 20 uM incubated for 240 mins by UPLC-HR-MS/MS analysis; type: ADME, cell-based, Oryctolagus cuniculus, Hepatocyte; details: 4 h, dose 2-20 µM
[21] = Drug metabolism in rat hepatocytes assessed as (R)-2-hydroxy-3-propionamido-3,4-dihydro-2H-benzo[e][1,2]oxaborinine-8-carboxylic acid formation at 2 to 20 uM incubated for 240 mins by UPLC-HR-MS/MS analysis; type: ADME, cell-based, Hepatocyte; details: 4 h, dose 2-20 µM
[22] = Metabolic stability in Cynomolgus monkey intestinal S9 fraction assessed as half life at 3 uM measured after 2 hrs in presence of NADPH by UPLC-MS/MS analysis; type: ADME, subcellular, Macaca fascicularis, Intestine; details: s9, 2 h
[23] = Apparent permeability across basolateral to apical side in human Caco-2 cells at 5 uM measured after 2 hrs by LC-MS/MS method; type: ADME, cell-based; details: caco-2, 2 h
[24] = Drug metabolism in Cynomolgus monkey hepatocytes assessed as (R)-2-hydroxy-3-propionamido-3,4-dihydro-2H-benzo[e][1,2]oxaborinine-8-carboxylic acid formation at 2 to 20 uM incubated for 240 mins by UPLC-HR-MS/MS analysis; type: ADME, cell-based, Macaca fascicularis, Hepatocyte; details: 4 h, dose 2-20 µM
[25] = Metabolic stability in Beagle dog liver S9 fraction assessed as half life at 3 uM measured after 2 hrs in absence of NADPH by UPLC-MS/MS analysis; type: ADME, subcellular, Canis lupus familiaris; details: s9, 2 h
[26] = Metabolic stability in Cynomolgus monkey intestinal S9 fraction assessed as half life at 3 uM measured after 2 hrs in absence of NADPH by UPLC-MS/MS analysis; type: ADME, subcellular, Macaca fascicularis, Intestine; details: s9, 2 h
[27] = Metabolic stability in Cynomolgus monkey plasma assessed as half life at 3 uM measured after 2 hrs by UPLC-MS/MS analysis; type: ADME, cell-free, Macaca fascicularis
[28] = Metabolic stability in Sprague-Dawley rat plasma assessed as half life at 3 uM measured after 2 hrs by UPLC-MS/MS analysis; type: ADME, cell-free
[29] = Metabolic stability in Cynomolgus monkey liver S9 fraction assessed as half life at 3 uM measured after 2 hrs in absence of NADPH by UPLC-MS/MS analysis; type: ADME, subcellular, Macaca fascicularis; details: s9, 2 h
[30] = Metabolic stability in Sprague-Dawley rat liver S9 fraction assessed as half life at 3 uM measured after 2 hrs in absence of NADPH by UPLC-MS/MS analysis; type: ADME, subcellular; details: s9, 2 h
[31] = Drug metabolism in Beagle dog hepatocytes assessed as (R)-2-hydroxy-3-propionamido-3,4-dihydro-2H-benzo[e][1,2]oxaborinine-8-carboxylic acid formation at 2 to 20 uM incubated for 240 mins by UPLC-HR-MS/MS analysis; type: ADME, cell-based, Canis lupus familiaris, Hepatocyte; details: 4 h, dose 2-20 µM
[32] = Metabolic stability in Cynomolgus monkey liver S9 fraction assessed as half life at 3 uM measured after 2 hrs in presence of NADPH by UPLC-MS/MS analysis; type: ADME, subcellular, Macaca fascicularis; details: s9, 2 h

`CCC(=O)N[C@H]1Cc2cccc(C(=O)OCOC(=O)C(CC)CC)c2OB1O` [LEDABORBACTAM ETZADROXIL] gave a t1/2 [1] of 1.2 min, a t1/2 [2] of 0.5 min and a t1/2 [3] of 4.6 min. For the same compound, the t1/2 [4] was 49 min, the t1/2 [5] was 43.9 min and the Drug metabolism [6] was “Metabolite_Detected”. The t1/2 [7] was 1.3 min, the Papp [8] was 9.22 10^-6 cm/s and the Drug metabolism [9] was “Metabolite_Detected”. For the same compound, the t1/2 [10] was 10.7 min, the t1/2 [11] was 1.1 min and the t1/2 [12] was 2.3 min. The t1/2 [13] was 1 min, the t1/2 [14] was 2.9 min and the t1/2 [15] was 3.9 min. For the same compound, the Ratio [16] was 3.2, the t1/2 [17] was 119 min and the t1/2 [18] was 4 min. For the same compound, the t1/2 [19] was 3.3 min, the Drug metabolism [20] was “Metabolite_Detected” and the Drug metabolism [21] was “Metabolite_Detected”. The t1/2 [22] was 11.2 min, the Papp [23] was 29.4 10^-6 cm/s and the Drug metabolism [24] was “Metabolite_Detected”. It also gave a t1/2 [25] of 0.7 min, a t1/2 [26] of 10.1 min and a t1/2 [27] of 22 min. It also gave a t1/2 [28] of 1.6 min, a t1/2 [29] of 0.9 min and a t1/2 [30] of 2.8 min. The Drug metabolism [31] was “Metabolite_Detected” and the t1/2 [32] was 0.8 min.
